Results from patent publication US10208081B2, “Bile acid derivatives as FXR/TGR5 agonists and methods of use thereof” (Enanta Pharmaceuticals, Inc., priority 2014, dated 2019).

Biological target: human FXR (NR1H4) (Homo sapiens (Human), UniProt Q96RI1)
Assay: Human FXR (NR1H4) Assay (Gal4 promoter driven luciferase reporter, Indigo Bioscience kit IB00601)
Assay type: cell-based
Settings: for Efficacy (%): efficacy normalized to CDCA set as 100%; for EC50: potency ranges
From the text: Assays Human FXR (NR1H4) Assay
Determination of a ligand mediated Gal4 promoter driven transactivation quantify ligand binding mediated activation of FXR. FXR Reporter Assay kit purchased from Indigo Bioscience (Catalogue number: IB00601) to determine the potency and efficacy of compound developed by Enanta that can induce FXR activation. The principle application of this reporter assay system is to quantify functional activity of human FXR. The assay utilizes non-human mammalian cells, CHO (Chinese hamster ovary) cells engineered to express human NR1H4 protein (referred to as FXR). Reporter cells also incorporate the cDNA encoding beetle luciferase which catalyzes the substrates and yields photon emission. Luminescence intensity of the reaction is quantified using a plate-reading luminometer, Envision. Reporter Cells include the luciferase reporter gene functionally linked to an FXR responsive promoter. Thus, quantifying changes in luciferase expression in the treated reporter cells provides a sensitive surrogate measure of the changes in FXR activity. […] The assay is according to the manufacturer's instructions. In brief, the assay was performed in white, 96 well plates using final volume of 100 ul containing cells with different doses of compounds. Retrieve Reporter Cells from −80° C. storage. Perform a rapid thaw of the frozen cells by transferring a 10 ml volume of 37° C. cell recovery medium into the tube of frozen cells. Recap the tube of Reporter Cells and immediately place it in a 37° C. water bath for 5-10 minutes. Retrieve the tube of Reporter Cell Suspension from the water bath. Sanitize the outside surface of the tube with a 70% alcohol swab, and then transfer it into the cell culture hood. Dispense 90 μl of cell suspension into each well of the 96-well Assay Plate. Transfer the plate into 37° C. incubator, allowing the cells adherent to the bottom of the well. Dilute compounds in Dilution Plate (DP), and administrate to cells at Assay Plate (AP). DMSO content of the samples was kept at 0.2%. Cells were incubated for additional 22 hours before luciferase activities were measured. Thirty minutes before intending to quantify FXR activity, remove Detection Substrate and Detection Buffer from the refrigerator and place them in a low-light area so that they may equilibrate to room temperature. Remove the plate's lid and discard all media contents by ejecting it into an appropriate waste container. Gently tap the inverted plate onto a clean absorbent paper towel to remove residual droplets. Cells will remain tightly adhered to well bottoms. Add 100 μl of luciferase detection reagent to each well of the assay plate. Allow the assay plate to rest at room temperature for at least 5 minutes following the addition of LDR. Set the instrument (Envision) to perform a single 5 second “plate shake” prior to reading the first assay well. Read time may be 0.5 second (500 mSec) per well.

human FXR (NR1H4), sequence (Q96RI1 whole entry, the tested form may be a part): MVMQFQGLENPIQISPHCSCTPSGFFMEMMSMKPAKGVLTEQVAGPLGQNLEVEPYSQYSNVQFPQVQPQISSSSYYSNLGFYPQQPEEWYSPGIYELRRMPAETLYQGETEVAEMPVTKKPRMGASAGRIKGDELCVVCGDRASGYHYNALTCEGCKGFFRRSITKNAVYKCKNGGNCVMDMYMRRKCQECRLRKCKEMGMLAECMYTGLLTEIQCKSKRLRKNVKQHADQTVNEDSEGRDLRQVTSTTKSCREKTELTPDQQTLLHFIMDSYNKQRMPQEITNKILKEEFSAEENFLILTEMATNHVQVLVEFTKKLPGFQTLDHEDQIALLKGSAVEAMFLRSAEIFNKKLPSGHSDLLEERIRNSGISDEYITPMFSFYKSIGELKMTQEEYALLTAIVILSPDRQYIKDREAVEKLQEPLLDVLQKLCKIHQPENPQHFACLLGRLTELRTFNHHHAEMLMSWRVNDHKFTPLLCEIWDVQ

Row | SMILES | Efficacy (%) | EC50
1 | CC[C@H]1[C@@H](O)[C@@H]2[C@H](CC[C@]3(C)[C@@H]([C@H](C)CCNC(=O)NS(=O)(=O)c4ccc5ccccc5c4)CC[C@@H]23)[C@@]2(C)CC[C@@H](O)C[C@@H]12 [Example 1] | 337% | < 100 nM
2 | CC[C@H]1[C@@H](O)[C@@H]2[C@H](CC[C@]3(C)[C@@H]([C@H](C)CCNC(=O)NS(=O)(=O)c4ccc(OC(F)(F)F)cc4)CC[C@@H]23)[C@@]2(C)CC[C@@H](O)C[C@@H]12 [Example 2] | 300% | < 100 nM
3 | CC[C@H]1[C@@H](O)[C@@H]2[C@H](CC[C@]3(C)[C@@H]([C@H](C)CCNC(=O)NS(=O)(=O)c4ccc(C(C)(C)C)cc4)CC[C@@H]23)[C@@]2(C)CC[C@@H](O)C[C@@H]12 [Example 3] | 396% | < 100 nM
4 | CC[C@H]1[C@@H](O)[C@@H]2[C@H](CC[C@]3(C)[C@@H]([C@H](C)CCNC(=O)NS(=O)(=O)c4ccccc4)CC[C@@H]23)[C@@]2(C)CC[C@@H](O)C[C@@H]12 [Example 4] | 342% | < 100 nM
5 | CC[C@H]1[C@@H](O)[C@@H]2[C@H](CC[C@]3(C)[C@@H]([C@H](C)CCNC(=O)NS(=O)(=O)C4CC4)CC[C@@H]23)[C@@]2(C)CC[C@@H](O)C[C@@H]12 [Example 5] | 369% | 100 to 1000 nM
6 | CC[C@H]1[C@@H](O)[C@@H]2[C@H](CC[C@]3(C)[C@@H]([C@H](C)CCNC(=O)NS(C)(=O)=O)CC[C@@H]23)[C@@]2(C)CC[C@@H](O)C[C@@H]12 [Example 6] | 269% | 100 to 1000 nM
7 | CC[C@H]1[C@@H](O)[C@@H]2[C@H](CC[C@]3(C)[C@@H]([C@H](C)CCNC(=O)NC(C)C)CC[C@@H]23)[C@@]2(C)CC[C@@H](O)C[C@@H]12 [Example 7] | 259% | 1000 to 10000 nM
8 | CC[C@H]1[C@@H](O)[C@@H]2[C@H](CC[C@]3(C)[C@@H]([C@H](C)CCCNS(=O)(=O)c4ccccc4)CC[C@@H]23)[C@@]2(C)CC[C@@H](O)C[C@@H]12 [Example 10] | 168% | 100 to 1000 nM
9 | CC[C@H]1[C@@H](O)[C@@H]2[C@H](CC[C@]3(C)[C@@H]([C@H](C)CCCNS(=O)(=O)C(C)C)CC[C@@H]23)[C@@]2(C)CC[C@@H](O)C[C@@H]12 [Example 11] | 267% | 1000 to 10000 nM
10 | CC[C@H]1[C@@H](O)[C@@H]2[C@H](CC[C@]3(C)[C@@H]([C@H](C)CCCNC(=O)NS(=O)(=O)c4ccc(C(C)(C)C)cc4)CC[C@@H]23)[C@@]2(C)CC[C@@H](O)C[C@@H]12 [Example 12] | 327% | < 100 nM
11 | CC[C@H]1[C@@H](O)[C@@H]2[C@H](CC[C@]3(C)[C@@H]([C@H](C)CCNC(=O)NS(=O)(=O)c4cccc(C)c4)CC[C@@H]23)[C@@]2(C)CC[C@@H](O)C[C@@H]12 [Example 13] | 245% | < 100 nM
12 | CC[C@H]1[C@@H](O)[C@@H]2[C@H](CC[C@]3(C)[C@@H]([C@H](C)CCNC(=O)NS(=O)(=O)c4ccc(C(F)(F)F)cc4)CC[C@@H]23)[C@@]2(C)CC[C@@H](O)C[C@@H]12 [Example 14] | 295% | 100 to 1000 nM
13 | CC[C@H]1[C@@H](O)[C@@H]2[C@H](CC[C@]3(C)[C@@H]([C@H](C)CCNC(=O)NS(=O)(=O)c4ccc(OC)cc4)CC[C@@H]23)[C@@]2(C)CC[C@@H](O)C[C@@H]12 [Example 15] | 337% | < 100 nM
14 | CC[C@H]1[C@@H](O)[C@@H]2[C@H](CC[C@]3(C)[C@@H]([C@H](C)CCNC(=O)NS(=O)(=O)c4ccc(C)c(F)c4)CC[C@@H]23)[C@@]2(C)CC[C@@H](O)C[C@@H]12 [Example 16] | 265% | < 100 nM
15 | CC[C@H]1[C@@H](O)[C@@H]2[C@H](CC[C@]3(C)[C@@H]([C@H](C)CCNC(=O)NS(=O)(=O)c4ccc(C)c(C)c4)CC[C@@H]23)[C@@]2(C)CC[C@@H](O)C[C@@H]12 [Example 17] | 357% | < 100 nM
16 | CC[C@H]1[C@@H](O)[C@@H]2[C@H](CC[C@]3(C)[C@@H]([C@H](C)CCCNC(=O)NS(=O)(=O)c4ccc(OC(F)(F)F)cc4)CC[C@@H]23)[C@@]2(C)CC[C@@H](O)C[C@@H]12 [Example 18] | 319% | < 100 nM

Row | SMILES | Efficacy (%) | EC50
17 | CC[C@H]1[C@@H](O)[C@@H]2[C@H](CC[C@]3(C)[C@@H]([C@H](C)CCCNC(=O)NS(=O)(=O)c4ccc5ccccc5c4)CC[C@@H]23)[C@@]2(C)CC[C@@H](O)C[C@@H]12 [Example 19] | 323% | 100 to 1000 nM
18 | CC[C@H]1[C@@H](O)[C@@H]2[C@H](CC[C@]3(C)[C@@H]([C@H](C)CCCNC(=O)NS(=O)(=O)C4CC4)CC[C@@H]23)[C@@]2(C)CC[C@@H](O)C[C@@H]12 [Example 20] | 334% | 100 to 1000 nM
19 | CC[C@H]1[C@@H](O)[C@@H]2[C@H](CC[C@]3(C)[C@@H]([C@H](C)CCNC(=O)NS(=O)(=O)c4cccs4)CC[C@@H]23)[C@@]2(C)CC[C@@H](O)C[C@@H]12 [Example 21] | 402% | 100 to 1000 nM
20 | CC[C@H]1[C@@H](O)[C@@H]2[C@H](CC[C@]3(C)[C@@H]([C@H](C)CCNC(=O)NS(=O)(=O)C4CCCCC4)CC[C@@H]23)[C@@]2(C)CC[C@@H](O)C[C@@H]12 [Example 22] | 477% | < 100 nM
21 | CC[C@H]1[C@@H](O)[C@@H]2[C@H](CC[C@]3(C)[C@@H]([C@H](C)CCNC(=O)NS(=O)(=O)c4ccc5c(c4)OCO5)CC[C@@H]23)[C@@]2(C)CC[C@@H](O)C[C@@H]12 [Example 23] | 488% | < 100 nM
22 | CC[C@H]1[C@@H](O)[C@@H]2[C@H](CC[C@]3(C)[C@@H]([C@H](C)CCNC(=O)NS(=O)(=O)c4cccc(Cl)c4)CC[C@@H]23)[C@@]2(C)CC[C@@H](O)C[C@@H]12 [Example 24] | 421% | < 100 nM
23 | CC[C@H]1[C@@H](O)[C@@H]2[C@H](CC[C@]3(C)[C@@H]([C@H](C)CCNC(=O)NS(=O)(=O)c4ccc(Cl)cc4)CC[C@@H]23)[C@@]2(C)CC[C@@H](O)C[C@@H]12 [Example 25] | 357% | < 100 nM
24 | CC[C@H]1[C@@H](O)[C@@H]2[C@H](CC[C@]3(C)[C@@H]([C@H](C)CCN(C)C(=O)NS(=O)(=O)c4ccc(C(C)(C)C)cc4)CC[C@@H]23)[C@@]2(C)CC[C@@H](O)C[C@@H]12 [Example 26] | 378% | 100 to 1000 nM
25 | CC[C@H]1[C@@H](O)[C@@H]2[C@H](CC[C@]3(C)[C@@H]([C@H](C)CCNC(=O)NS(=O)(=O)C4CCCC4)CC[C@@H]23)[C@@]2(C)CC[C@@H](O)C[C@@H]12 [Example 27] | 275% | < 100 nM
26 | CC[C@H]1[C@@H](O)[C@@H]2[C@H](CC[C@]3(C)[C@@H]([C@H](C)CCNC(=O)NS(=O)(=O)C(C)(C)C)CC[C@@H]23)[C@@]2(C)CC[C@@H](O)C[C@@H]12 [Example 28] | 323% | < 100 nM
27 | CC[C@H]1[C@@H](O)[C@@H]2[C@H](CC[C@]3(C)[C@@H]([C@H](C)CNC(=O)NS(=O)(=O)C4CC4)CC[C@@H]23)[C@@]2(C)CC[C@@H](O)C[C@@H]12 [Example 30] | 194% | 1000 to 10000 nM
28 | CC[C@H]1[C@@H](O)[C@@H]2[C@H](CC[C@]3(C)[C@@H]([C@H](C)CNC(=O)NS(=O)(=O)c4ccccc4)CC[C@@H]23)[C@@]2(C)CC[C@@H](O)C[C@@H]12 [Example 31] | 305% | 100 to 1000 nM
29 | CC[C@H]1[C@@H](O)[C@@H]2[C@H](CC[C@]3(C)[C@@H]([C@H](C)CNC(=O)NS(=O)(=O)c4ccc5ccccc5c4)CC[C@@H]23)[C@@]2(C)CC[C@@H](O)C[C@@H]12 [Example 32] | 309% | < 100 nM
30 | CC[C@H]1[C@@H](O)[C@@H]2[C@H](CC[C@]3(C)[C@@H]([C@H](C)CCNC(=O)NS(=O)(=O)N4CCOCC4)CC[C@@H]23)[C@@]2(C)CC[C@@H](O)C[C@@H]12 [Example 37] | 254% | < 100 nM
31 | CC[C@H]1[C@@H](O)[C@@H]2[C@H](CC[C@]3(C)[C@@H]([C@H](C)CCNC(=O)NS(=O)(=O)N4CCCCC4)CC[C@@H]23)[C@@]2(C)CC[C@@H](O)C[C@@H]12 [Example 39] | 379% | < 100 nM
